Earlier results as cited in PubChem BioAssay AID1259409 (Chemical Carcinogenesis Research Information System (CCRIS), 2018).

Tested on: rodent chemically induced tumor inhibition, incidence and multiplicity
Assay: CCRIS tumor inhibitor studies
Details: Dose [Inhibitor]: 0, Route [Inhibitor]: ORAL, Promoter: NONE USED

## CN1C(C(=O)Nc2ccccn2)=C(O)c2ccccc2S1(=O)=O
Carcinogen: 2-ACETYLAMINOFLUORENE, 53-96-3, 130 PPM IN DIET FOR 18 WK BEGINNING 1 WK PRIOR TO CARCINOGEN TREATMENT (STUDY DURATION: 36 WK), Species: RAT, Strain/Sex: ACI/N/MALE, Target Tissue: Type of Lesion: LIVER: TUMOR, Dose [Carcinogen]: 200 PPM IN DIET FOR 16 WK
  tumour outcome (control, treated, inhibition, significance): 10/10 (100%), 1/10 (10%), 90%, p=0.00006
Carcinogen: 4-(METHYLNITROSAMINO)-1-(3-PYRIDYL-1-BUTANONE, 64091-91-4, 25 MG/KG IN DIET FOR 25 WK BEGINNING 2 WK PRIOR TO CARCINOGEN TREATMENT (STUDY DURATION: 25 WK), Species: MOUSE, Strain/Sex: STRAIN-A/FEMALE, Target Tissue: Type of Lesion: FORESTOMACH: TUMOR, Dose [Carcinogen]: 9.1 MG IN DRINKING WATER FOR 7 WK
  tumour outcome (control, treated, inhibition, significance): 7/25 (28%), 2/24 (8%), 71%, not significant
Carcinogen: 7,12-DIMETHYLBENZ[A]ANTHRACENE, 57-97-6, 0.01% IN HIGH-FAT (20% SOYBEAN OIL) DIET FOR 20 WK BEGINNING 1 WK POST CARCINOGEN DOSE (STUDY DURATION: 21 WK), Species: RAT, Strain/Sex: SPRAGUE-DAWLEY/FEMALE, Target Tissue: Type of Lesion: MAMMARY GLAND: ADENOCARCINOMA, Dose [Carcinogen]: 5 MG ONCE
  tumour outcome (control, treated, inhibition, significance): 17/20 (85%), 19/21 (90%), -6%, not significant
Carcinogen: 7,12-DIMETHYLBENZ[A]ANTHRACENE, 57-97-6, 0.01% IN LOW-FAT (0.5% SOYBEAN OIL) DIET FOR 20 WK BEGINNING 1 WK POST CARCINOGEN DOSE (STUDY DURATION: 21 WK), Species: RAT, Strain/Sex: SPRAGUE-DAWLEY/FEMALE, Target Tissue: Type of Lesion: MAMMARY GLAND: ADENOCARCINOMA, Dose [Carcinogen]: 5 MG ONCE
  tumour outcome (control, treated, inhibition, significance): 10/18 (56%), 9/20 (45%), 20%, not significant
Carcinogen: AZOXYMETHANE, 25843-45-2, 25 PPM IN DIET BEGINNING 1 WK POST CARCINOGEN DOSE FOR DURATION OF STUDY (STUDY DURATION: 56 WK), Species: RAT, Strain/Sex: F344/MALE, Target Tissue: Type of Lesion: COLON: ADENOCARCINOMA, Dose [Carcinogen]: 29.6 MG/KG IN NORMAL SALINE ONCE
  tumour outcome (control, treated, inhibition, significance): 17/30 (57%), 10/30 (33%), 41%, not calculated
Carcinogen: AZOXYMETHANE, 25843-45-2, 25 PPM IN DIET BEGINNING 1 WK POST CARCINOGEN DOSE FOR DURATION OF STUDY (STUDY DURATION: 56 WK), Species: RAT, Strain/Sex: F344/MALE, Target Tissue: Type of Lesion: COLON: ADENOMA, Dose [Carcinogen]: 29.6 MG/KG IN NORMAL SALINE ONCE
  tumour outcome (control, treated, inhibition, significance): 11/30 (37%), 16/30 (53%), -43%, not calculated
Carcinogen: AZOXYMETHANE, 25843-45-2, 25 PPM IN DIET BEGINNING 1 WK POST CARCINOGEN DOSE FOR DURATION OF STUDY (STUDY DURATION: 56 WK), Species: RAT, Strain/Sex: F344/MALE, Target Tissue: Type of Lesion: SMALL INTESTINE: ADENOCARCINOMA, Dose [Carcinogen]: 29.6 MG/KG IN NORMAL SALINE ONCE
  tumour outcome (control, treated, inhibition, significance): 10/30 (33%), 7/30 (23%), 30%, not calculated
Carcinogen: AZOXYMETHANE, 25843-45-2, 25 PPM IN DIET BEGINNING 1 WK POST CARCINOGEN DOSE FOR DURATION OF STUDY (STUDY DURATION: 56 WK), Species: RAT, Strain/Sex: F344/MALE, Target Tissue: Type of Lesion: SMALL INTESTINE: ADENOMA, Dose [Carcinogen]: 29.6 MG/KG IN NORMAL SALINE ONCE
  tumour outcome (control, treated, inhibition, significance): 1/30 (3%), 0/30 (0%), 100%, not significant
Carcinogen: AZOXYMETHANE, 25843-45-2, 75 PPM IN DIET BEGINNING 1 WK POST CARCINOGEN DOSE FOR DURATION OF STUDY (STUDY DURATION: 56 WK), Species: RAT, Strain/Sex: F344/MALE, Target Tissue: Type of Lesion: COLON: ADENOCARCINOMA, Dose [Carcinogen]: 29.6 MG/KG IN NORMAL SALINE ONCE
  tumour outcome (control, treated, inhibition, significance): 17/30 (57%), 6/30 (20%), 65%, p<0.05
Carcinogen: AZOXYMETHANE, 25843-45-2, 75 PPM IN DIET BEGINNING 1 WK POST CARCINOGEN DOSE FOR DURATION OF STUDY (STUDY DURATION: 56 WK), Species: RAT, Strain/Sex: F344/MALE, Target Tissue: Type of Lesion: COLON: ADENOMA, Dose [Carcinogen]: 29.6 MG/KG IN NORMAL SALINE ONCE
  tumour outcome (control, treated, inhibition, significance): 11/30 (37%), 14/30 (47%), -27%, not calculated
Carcinogen: AZOXYMETHANE, 25843-45-2, 75 PPM IN DIET BEGINNING 1 WK POST CARCINOGEN DOSE FOR DURATION OF STUDY (STUDY DURATION: 56 WK), Species: RAT, Strain/Sex: F344/MALE, Target Tissue: Type of Lesion: SMALL INTESTINE: ADENOCARCINOMA, Dose [Carcinogen]: 29.6 MG/KG IN NORMAL SALINE ONCE
  tumour outcome (control, treated, inhibition, significance): 10/30 (33%), 9/30 (30%), 10%, not calculated
Carcinogen: AZOXYMETHANE, 25843-45-2, 75 PPM IN DIET BEGINNING 1 WK POST CARCINOGEN DOSE FOR DURATION OF STUDY (STUDY DURATION: 56 WK), Species: RAT, Strain/Sex: F344/MALE, Target Tissue: Type of Lesion: SMALL INTESTINE: ADENOMA, Dose [Carcinogen]: 29.6 MG/KG IN NORMAL SALINE ONCE
  tumour outcome (control, treated, inhibition, significance): 1/30 (3%), 2/30 (7%), -133%, not calculated
Carcinogen: AZOXYMETHANE, 25843-45-2, 75 PPM IN THE DIET FOR 28 WK BEGINNING 2 WK PRIOR TO CARCINOGEN TREATMENT (STUDY DURATION: 30 WK), Species: RAT, Strain/Sex: F344/MALE, Target Tissue: Type of Lesion: COLON: TUMOR, Dose [Carcinogen]: 15 MG/KG BW 1/WK FOR 2 WK
  tumour outcome (control, treated, inhibition, significance): 20/43 (47%), 19/56 (34%), 28%, p<0.05
Carcinogen: AZOXYMETHANE, 25843-45-2, 150 PPM IN DIET BEGINNING 1 WK POST CARCINOGEN DOSE FOR DURATION OF STUDY (STUDY DURATION: 56 WK), Species: RAT, Strain/Sex: F344/MALE, Target Tissue: Type of Lesion: COLON: ADENOCARCINOMA, Dose [Carcinogen]: 29.6 MG/KG IN NORMAL SALINE ONCE
  tumour outcome (control, treated, inhibition, significance): 17/30 (57%), 7/30 (23%), 59%, p<0.05
